In data set [1] the test system is Ang-(1-7) formation from Ang II (ACE2, PCP) in human kidney homogenates. The experiment in a line: Ang II turnover to Ang-(1-7) in human kidney biopsy homogenates. Conditions: human kidney biopsy homogenate, inhibitor sensitive formation rate of Fig. 2d, mean ± s.d., n = 5. The format is biochemical. The method, then:
(§1) This study was approved by the Ethics Committee of the Medical University of Vienna (EK #1496/2014) and was performed in accordance to the good clinical practice guidelines. Written informed consent was obtained before biopsies were taken perioperative from 5 kidney donors in 2014. Renal biopsies were either snap frozen in liquid nitrogen for angiotensin metabolism analysis or fixed in formalin for histological examination.
Metabolic RAS analysis was performed by Attoquant Diagnostics GmbH, Vienna, Austria. Renal biopsies of mice and humans were extracted and homogenized in phosphate-buffered saline (PBS) using low-energy sonication. The metabolism of spiked Ang I, Ang II (Fisher Scientific) or recombinant murine AGT (Sino Biological Inc.) for the renin activity assay, respectively, was assayed in homogenates after ex vivo incubation at 37 °C in presence or absence of specific enzyme inhibitors. […]
The enzyme activity was calculated by determining the inhibitor sensitive part of product formation in incubated samples and is presented as a product formation in ng of the corresponding angiotensin product per μg protein per hour. […]
(§2) Angiotensin peptide quantification by liquid chromatography tandem-mass spectrometry analysis (LC-MS/MS) was performed by Attoquant Diagnostics GmbH (Vienna, Austria) as previously described.

For data set [2], the system named is Ang-(1-7) and Ang II formation from Ang I (NEP, PEP, ACE) in murine kidney homogenates. It counts as biochemical, mouse. The protocol:
as §2

Data set [3] has as its system Ang-(1-7) and Ang II formation from Ang I (NEP, PEP, ACE, chymase) in human kidney homogenates. The method, then: as §1
Metabolic RAS analysis was performed by Attoquant Diagnostics GmbH, Vienna, Austria. Renal biopsies of mice and humans were extracted and homogenized in phosphate-buffered saline (PBS) using low-energy sonication. The metabolism of spiked Ang I, Ang II (Fisher Scientific) or recombinant murine AGT (Sino Biological Inc.) for the renin activity assay, respectively, was assayed in homogenates after ex vivo incubation at 37 °C in presence or absence of specific enzyme inhibitors. […] Aminopeptidase Inhibitor (10 μM, Sigma-Aldrich) was added to all samples.
The enzyme activity was calculated by determining the inhibitor sensitive part of product formation in incubated samples and is presented as a product formation in ng of the corresponding angiotensin product per μg protein per hour. In order to proof linearity of the assay in dependence of enzyme abundance, Ang I and Ang II metabolism were assayed in serial diluted kidney homogenates (Supplementary Fig. 6). All experiments were performed in the linear range of the assay.
as §2

The target in another data set is T1, NEP (Mus musculus, UniProt Q61391).
T1 construct: Consecutive tissue sections were prepared from fresh frozen kidneys (n = 4); from tissue; host or cells: murine kidney cryo-sections (fresh frozen)
T1 sequence (Q61391 1-750): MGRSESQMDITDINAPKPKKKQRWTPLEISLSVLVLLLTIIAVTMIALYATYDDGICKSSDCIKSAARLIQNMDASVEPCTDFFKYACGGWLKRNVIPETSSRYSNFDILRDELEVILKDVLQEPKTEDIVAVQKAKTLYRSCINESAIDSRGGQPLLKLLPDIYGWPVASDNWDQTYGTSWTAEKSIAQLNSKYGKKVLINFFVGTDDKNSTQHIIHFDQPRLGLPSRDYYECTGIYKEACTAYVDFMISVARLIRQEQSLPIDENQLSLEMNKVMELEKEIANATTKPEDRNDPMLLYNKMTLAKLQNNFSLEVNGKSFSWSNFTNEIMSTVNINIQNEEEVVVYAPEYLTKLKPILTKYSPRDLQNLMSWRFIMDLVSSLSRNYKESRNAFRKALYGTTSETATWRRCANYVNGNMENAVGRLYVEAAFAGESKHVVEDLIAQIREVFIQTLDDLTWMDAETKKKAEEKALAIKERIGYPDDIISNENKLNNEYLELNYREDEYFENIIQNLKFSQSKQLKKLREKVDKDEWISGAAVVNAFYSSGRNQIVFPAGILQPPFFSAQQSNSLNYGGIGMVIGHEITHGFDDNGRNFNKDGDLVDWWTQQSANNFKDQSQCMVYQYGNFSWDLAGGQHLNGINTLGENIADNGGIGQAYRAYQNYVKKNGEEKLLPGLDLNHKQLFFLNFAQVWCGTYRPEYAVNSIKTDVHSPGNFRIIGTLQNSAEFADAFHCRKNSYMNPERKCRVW
Nature of the data set: MALDI-Imaging of Ang I to Ang-(1-7) turnover in murine kidney cryo-sections. It counts as biochemical. The method, then: Consecutive tissue sections were prepared from fresh frozen kidneys (n = 4) as previously described[37] and incubated with 772 μM Ang I at 37 °C for 5 min. […] The imaging technique is described in detail elsewhere.

Another data set concerns ACE. Conditions: cited from earlier work.
A further data set deals with CES1. Conditions: liver; cited from earlier work.
The subject of data set [4] is Ang-(1-7) formation from Ang II (ACE2, PCP) in murine kidney homogenates. Nature of the data set: Ang II turnover to Ang-(1-7) in murine kidney homogenates with and without enzyme inhibitors. As to conditions: Ang II spike, 37 °C, LC-MS/MS, n = 4. It counts as biochemical, mouse. The protocol: as §2
Data set [5] concerns murine kidney angiotensin levels. The experiment in a line: Renal angiotensin metabolites in mice treated i.p. with NEP inhibitor. The format is in vivo, mouse. As to conditions: 50 mg/kg i.p. The method, then: (§3) 10 to 12 weeks old female wild-type with C57BL/6j background were maintained at the animal care facility of the University Duesseldorf, Germany under a 12 h light/dark cycle, normal chew (SNIFF, Soest) and tap water ad libitum. Vehicle (50% DMSO) or NEP-inhibitor (LBQ657 (Sigma-Aldrich): 50 mg/kg) were administrated i.p. 4 hours prior to kidney and heparin plasma sampling. Kidneys were obtained as given above, while heparin plasma was incubated for 30 min at 37 °C for equilibrium analysis, stabilized[38] and stored at −80 °C until shipment.
as §2

Data set [6] concerns murine plasma equilibrium angiotensin levels. Nature of the data set: Equilibrium plasma angiotensin metabolites in mice treated i.p. with NEP inhibitor. It counts as in vivo, mouse. Conditions: 50 mg/kg i.p., 4 hours, mean ± s.e.m., n = 5. The method, then: as §3, §2
The mark [7] stands for this setting: 4 hours prior to sampling, LC-MS/MS, mean ± s.e.m., n = 5.
The mark [8] stands for this setting: ratio of renal levels, 4 hours, mean ± s.e.m., n = 5.
[9] abbreviates: heparin plasma incubated 30 min at 37 °C, LC-MS/MS.
Where [10] appears, read: ratio of equilibrium plasma levels.
[11] abbreviates: mouse kidney homogenate, Ang I spike, 37 °C, lisinopril 10 μM, LC-MS/MS, n = 4.

These results are taken from article PMC5030486, “Neprilysin is a Mediator of Alternative Renin-Angiotensin-System Activation in the Murine and Human Kidney” (Scientific Reports, 2016).

Ends that are not written are not given here. Peptide text beside a SMILES is read from it. * marks the point of attachment. Cbz = O=C(OCc1ccccc1)*

As to `CC[C@H](C)[C@H](NC(=O)[C@H](Cc1ccc(O)cc1)NC(=O)[C@@H](NC(=O)[C@H](CCCNC(=N)N)NC(=O)[C@@H](N)CC(=O)O)C(C)C)C(=O)N[C@@H](Cc1cnc[nH]1)C(=O)N1CCC[C@H]1C(=O)N[C@@H](Cc1ccccc1)C(=O)O` [Ang II, angiotensin II], in data set [1], the “Enzymatic contribution of ACE2, Ang II to Ang-(1-7)” value worked out at 88.2 ± 4.3%.
Take `O=C(O)CNC(=O)C(CS)Cc1ccccc1` (racemic) [DL-thiorphan]: the “Reduction of Ang-(1-7) formation from Ang I” value in [2] (mouse kidney homogenate, Ang I spike, 37 °C, DL-thiorphan 100 μM used only in combination with lisinopril 10 μM, LC-MS/MS) was 75.2 ± 1.8%. The “Effect on turnover from Ang I to Ang-(1-7)” value was “reduced significantly” in data set [2] (mouse kidney homogenate, DL-thiorphan 100 μM with lisinopril 10 μM, n = 4) and “reduced significantly” in data set [3] (human kidney biopsy homogenate, DL-thiorphan 100 μM with lisinopril 10 μM, n = 5). Besides, the “Effect on Ang-(1-7) formation from Ang I, MALDI-Imaging intensity” value on NEP (murine kidney cryo-sections, 772 μM Ang I, 37 °C, 5 min, 100 μM DL-thiorphan in presence of 10 μM lisinopril, n = 4, p = 0.045 vs. 10 μM lisinopril) is on record as “significant reduction of Ang-(1-7) formation from Ang I”. In addition, in the data set on ACE, the ACE inhibitory activity result was “weak ACE inhibitory activity”.
In the case of DRVYIHPFHL [Ang I, angiotensin I], in [2], the “Enzymatic contribution of NEP, Ang I to Ang-(1-7)” value worked out at 50 ± 1%; the “Enzymatic contribution of PEP, Ang I to Ang-(1-7)” value was determined as 23 ± 1%; the “Share of Ang I converted directly to Ang-(1-7)” value stood at 73.4 ± 2.1%; the “Share of Ang I metabolized to Ang II (ACE)” value amounted to 26.6 ± 2.1%. In data set [3], the “Enzymatic contribution of ACE, Ang I to Ang II” value is 25 ± 7%; the “Enzymatic contribution of NEP, Ang I to Ang-(1-7)” value was 63 ± 10%; the “Enzymatic contribution of PEP, Ang I to Ang-(1-7)” value is reported as 10 ± 3%; the “Enzymatic contribution of chymase, Ang I to Ang II” value turned out to be 2 ± 2%. Moreover, in [3], the “Share of Ang I converted to Ang II” value was 27 ± 9% and the “Share of Ang I converted to Ang-(1-7)” value came to 73 ± 9%.
For `CCOC(=O)[C@H](C)C[C@@H](Cc1ccc(-c2ccccc2)cc1)NC(=O)CCC(=O)O` [AHU-377], the “Activation of the prodrug” value in the data set on CES1 was “physiologically activated in the liver by CES1”.
As to `CC(C)C[C@H](NC(=O)[C@@H](NC(=O)N[C@@H](Cc1ccccc1)C(=O)O)[C@@H]1CCN=C(N)N1)C(=O)N[C@H](C=O)Cc1ccccc1` [chymostatin], the “Effect on ACE independent Ang II formation from Ang I” value in data set [3] (human kidney biopsy homogenate, Ang I spike, 37 °C, chymostatin 10 μM, LC-MS/MS, n = 5) is on record as “At least a part of ACE independent Ang II formation was blocked”.
With `CC(C)C[C@H](N[C@@H](Cc1cncn1Cc1cc(Cl)cc(Cl)c1)C(=O)O)C(=O)O` [MLN-4760], in data set [4] (ACE2 KO mouse kidney homogenate in PBS, MLN-4760 10 μM, aminopeptidase inhibitor 10 μM in all samples), the “Effect on Ang-(1-7) formation from Ang II, ACE2 KO kidney” value is recorded as “no effect”. Besides, the “Effect on Ang-(1-7) formation from Ang II, wild-type kidney” value in [4] (wild-type mouse kidney homogenate in PBS, MLN-4760 10 μM) was “reduced Ang-(1-7) formation in wild-type mice to the level of ACE2 KOs”.
Consider `O=C[C@@H]1CCCN1C(=O)[C@@H]1CCCN1C(=O)OCc1ccccc1` [ZPP, N-benzyloxycarbonyl-prolyl-prolinal] (Cbz-Pro-Pro-aldehyde), for which, in data set [4] (mouse kidney homogenate, ZPP 20 μM in addition to MLN-4760 10 μM), the “Effect on Ang-(1-7) formation from Ang II, ZPP added to MLN-4760” value is reported as “abolished Ang-(1-7) formation completely”. Also, the “Effect on Ang-(1-7) formation from Ang I, ZPP on top of lisinopril and DL-thiorphan” value in data set [2] (mouse kidney homogenate, Ang I spike, 37 °C, ZPP 20 μM, LC-MS/MS, n = 4) was “further significantly reduced Ang-(1-7) formation”.
For the compound `C[C@H](C[C@@H](Cc1ccc(-c2ccccc2)cc1)NC(=O)CCC(=O)O)C(=O)O` [LBQ657], in data set [5] (setting [7]), the “Renal Ang I” value turned out to be 277 ± 31 pg/g, the “Renal Ang II” value stood at 642 ± 99 pg/g, the “Renal Ang-(1-7)” value is on record as 35 ± 4 pg/g and the “Renal Ang-(1-9)” value is 162 ± 10 pg/g. Further, in [5] (setting [7]), the “Renal Ang-(2-8)” value is 195 ± 28 pg/g and the “Renal Ang-(2-10)” value is recorded as 89 ± 16 pg/g. Also, the “Reduction of Ang-(1-7) levels in the murine kidney” value in data set [5] (4 hours prior to sampling, LC-MS/MS, p = 0.026) was 53.1 ± 10.6%. For the same compound, in [5] (setting [8]), the “Renal Ang-(1-7)/Ang I (x100)” value was determined as 13.4 ± 2.0 and the “Renal Ang-(1-7)/Ang II (x100)” value was found to be 6.1 ± 1.2. Moreover, in data set [6] (setting [9]), the “Equilibrium plasma Ang I” value came out at 970 ± 341 pg/mL, the “Equilibrium plasma Ang II” value is 1423 ± 540 pg/mL, the “Equilibrium plasma Ang-(1-5)” value is 73 ± 34 pg/mL and the “Equilibrium plasma Ang-(1-7)” value worked out at 20 ± 7 pg/mL. Also, in [6] (setting [9]), the “Equilibrium plasma Ang-(2-8)” value was 269 ± 91 pg/mL and the “Equilibrium plasma Ang-(3-8)” value was 114 ± 36 pg/mL. Moreover, in [6] (setting [10]), the “Equilibrium plasma Ang-(1-7)/Ang I (x100)” value turned out to be 1.8 ± 0.2 and the “Equilibrium plasma Ang-(1-7)/Ang II (x100)” value worked out at 1.5 ± 0.2.
Consider `NCCCC[C@H](N[C@@H](CCc1ccccc1)C(=O)O)C(=O)N1CCC[C@H]1C(=O)O` [lisinopril], for which the “Effect on Ang II formation from Ang I” value is listed as “efficiently blocked” in data set [2] (setting [11]) and “not able to completely abolish Ang II formation” in data set [3] (human kidney biopsy homogenate, Ang I spike, 37 °C, lisinopril 10 μM, LC-MS/MS, n = 5). For the same compound, the “Effect on Ang-(1-7) formation from Ang I” value in [2] (setting [11]) is “remained unaffected”. Moreover, at NEP (murine kidney slices incubated with Ang I, lisinopril 0 μM–10 μM, MALDI-Imaging), the “Ang-(1-7) signal with increasing inhibitor concentration” value was “concentration dependent increase of Ang-(1-7)”.
